System: HeLa-CD4-LTR-beta-gal/HL2/3 cell fusion, beta-gal luminescence
Test: HIV-1 entry blockers, X4 Env-mediated fusion – HL2/3 with HeLa-CD4 reporter cells, 2% serum, set 2, dose response (AID 504561);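 active = compounds blocking at least half of HIV envelope driven cell fusion at some tested dose; inactive = the rest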

IC50, active:
Cc1c2c(=O)n(-c3nc4ccccc4s3)nc-2cc(O)n1Cc1ccc(F)cc1 3.9 µM, Cc1c2c(=O)n(-c3nc4ccccc4s3)nc-2cc(O)n1C1CC1 3.56 µM, Cc1c2c(=O)n(-c3nc4ccccc4s3)nc-2cc(O)n1Cc1ccccc1Cl 5.42 µM, Cc1c2c(=O)n(-c3nc4ccccc4s3)nc-2cc(O)n1CCC(C)C 5.2 µM, Cc1c2c(=O)n(-c3nc4ccccc4s3)nc-2cc(O)n1Cc1ccncc1 9.59 µM, Cc1c2c(=O)n(-c3nc4ccccc4s3)nc-2cc(O)n1Cc1cccs1 4.77 µM, Cc1c2c(=O)n(-c3nc4ccccc4s3)nc-2cc(O)n1CCc1cccs1 7.14 µM, Cc1c2c(=O)n(-c3nc4ccccc4s3)nc-2cc(O)n1Cc1cccnc1 5.71 µM, COc1ccccc1Cn1c(O)cc2nn(-c3nc4ccccc4s3)c(=O)c-2c1C 4.55 µM, COc1ccc(Cn2c(O)cc3nn(-c4nc5ccccc5s4)c(=O)c-3c2C)cc1 7.91 µM, Cc1c2c(=O)n(-c3nc4ccccc4s3)nc-2cc(O)n1Cc1ccccc1 27.4 µM, COc1ccc(CCn2c(O)cc3nn(-c4nc5ccccc5s4)c(=O)c-3c2C)cc1 6.94 µM, Cc1c2c(=O)n(-c3nc4ccccc4s3)nc-2cc(O)n1CCc1ccc(O)cc1 9.72 µM

— PubChem BioAssay AID504561 (Southern Research Specialized Biocontainment Screening …, 2011)
